Structures can show the parent of a compound that is named as a salt.
Tested on: KB cells
Test: Cytotoxicity against KB cells (crystal violet dying method)
Assay type: cell-based
Settings: Homo sapiens; KB cells, 72 hours, 50% proliferation inhibition; read-out: Cytotoxicity [IC50 (μM)]
Description: Test 1 Cytotoxicity against KB cells
The residue was re-suspended in an MEM medium containing 10% fetal bovine serum. Then, an equivalent amount of a 0.2% trypan blue solution was added to a portion of the cell suspension, followed by mixing. The number of living cells which had not been dyed with the trypan blue was counted by a hemocytometer and the suspension was diluted and adjusted with the above-described culture medium to give a cell concentration of 1×10^4 cells/ml. Each well of a 96-well plate was inoculated with a 100-μl portion of the resulting suspension, in other words, was inoculated to give a concentration of 1×10^3 cells/well.
To the cells cultured in a CO2 incubator for 24 hours after the inoculation was added 100 μl/well of a medicament solution, followed by culturing for 72 hours. To a control was added 100 μl of an MEM medium.
The cytotoxicity of the medicament was determined from a change in the number of the cells by using the crystal violet dying method.
After washing the plate with water, 100 μl/well of a 0.05% crystal violet solution dissolved in 20% methanol was added to dye the cells therewith for about 15 minutes. The plate was washed to remove the unbound crystal violet, followed by the addition of 100 μl/well of 0.05M NaH2 PO4 /ethanol (1:1 v/v), whereby the crystal violet bound to the cellular protein was extracted.

Structure (SMILES) | IC50 [µM]
CN1CCN(C(=O)c2cc(C(=O)NCCNCCCN3C(=O)c4cccc5cc([N+](=O)[O-])cc(c45)C3=O)cc(N3C(=O)c4cccc5cc([N+](=O)[O-])cc(c45)C3=O)c2)CC1 [Example 56 (B), 1-(4-methylpiperazino)carbonyl-3-(3-nitro-1,8-naphthalimido)-5-[N-[2-[[3-(3-nitro-1,8-naphthalimido)propyl]amino]ethyl]carbamoyl]benzene hydrochloride] | 0.12
O=C(NCCNCCN1C(=O)c2cc3ccccc3cc2C1=O)c1cc(C(=O)NCCNCCN2C(=O)c3cc4ccccc4cc3C2=O)cc(N2C(=O)c3cccc4cc([N+](=O)[O-])cc(c34)C2=O)c1 [Example 7, 1,3-bis[N-[2-[[2-(2,3-naphthalimido)ethyl]amino]ethyl]carbamoyl]-5-(3-nitro-1,8-naphthalimido)benzene dihydrochloride] | 4.1
O=C(NCCNCCN1C(=O)c2cccc3cc([N+](=O)[O-])cc(c23)C1=O)c1cc(C(=O)NCCN2CCCC2)cc(N2C(=O)c3cccc4cc([N+](=O)[O-])cc(c34)C2=O)c1 [Example 45, 1-(3-nitro-1,8-naphthalimido)-3-[N-[2-[[2-(3-nitro-1,8-naphthalimido)ethyl]amino]ethyl]carbamoyl]-5-[N-(2-pyrrolidinoethyl)carbamoyl]benzene hydrochloride] | 0.066
O=C(NCCNCCNC(=O)c1cnc2ccccc2n1)c1cc(C(=O)NCCNCCN2C(=O)c3cccc4cc([N+](=O)[O-])cc(c34)C2=O)cc(N2C(=O)c3cccc4cc([N+](=O)[O-])cc(c34)C2=O)c1 [Example 15, 1-(3-nitro-1,8-naphthalimido)-3-[N-[2-[[2-(3-nitro-1,8-naphthalimido)ethyl]amino]ethyl]carbamoyl]-5-[N-[2-[[2-(quinoxaline-2-carbonylamino)ethyl]amino]ethyl]carbamoyl]benzene trihydrochloride] | 0.21
O=C(NCCCNCCN1C(=O)c2cccc3cc([N+](=O)[O-])cc(c23)C1=O)c1cccc(N2C(=O)c3cccc4cc([N+](=O)[O-])cc(c34)C2=O)c1 [Example 40 (B), 1-(3-nitro-1,8-naphthalimido)-3-[N-[3-[[2-(3-nitro-1,8-naphthalimido)ethyl]amino]propyl]carbamoyl]benzene hydrochloride] | 0.00023
CN1CCN(C(=O)c2cc(C(=O)NCCCNCCN3C(=O)c4cccc5cc([N+](=O)[O-])cc(c45)C3=O)cc(N3C(=O)c4cccc5cc([N+](=O)[O-])cc(c45)C3=O)c2)CC1 [Example 56 (A), 1-(4-methylpiperazino)carbonyl-3-(3-nitro-1,8-naphthalimido)-5-[N-[3-[[2-(3-nitro-1,8-naphthalimido)ethyl]amino]propyl]carbamoyl]benzene hydrochloride] | 0.039
O=C(NCCNCCNC(=O)c1cnc2ccccc2c1)c1cc(C(=O)NCCNCCN2C(=O)c3cccc4cc([N+](=O)[O-])cc(c34)C2=O)cc(N2C(=O)c3cccc4cc([N+](=O)[O-])cc(c34)C2=O)c1 [Example 13, 1-(3-nitro-1,8-naphthalimido)-3-[N-[2-[[2-(3-nitro-1,8-naphthalimido)ethyl]amino]ethyl]carbamoyl]-5-[N-[2-[[2-(quinoline-3-carbonylamino)ethyl]amino]ethyl]carbamoyl]benzene trihydrochloride] | 1.6
CN(C)CCCNC(=O)c1cc(NC(=O)CCNC(=O)c2cc(C(=O)NCCNCCN3C(=O)c4cccc5cc([N+](=O)[O-])cc(c45)C3=O)cc(N3C(=O)c4cccc5cc([N+](=O)[O-])cc(c45)C3=O)c2)cn1C [Example 33, 1-[N-[2-[N-[2-[N-(3-dimethylaminopropyl)carbamoyl]-1-methylpyrrol-4-yl]carbamoyl]ethyl]carbamoyl]-3-(3-nitro-1,8-naphthalimido)-5-[N-[2-[[2-(3-nitro-1,8-naphthalimido)ethyl]amino]ethyl]carbamoyl]benzene dihydrochloride] | 7.1
O=C(NCCNCCN1C(=O)c2cccc3cc([N+](=O)[O-])cc(c23)C1=O)c1cc(C(=O)NCCNCCN2C(=O)c3cccc4cc([N+](=O)[O-])cc(c34)C2=O)cc(N2C(=O)c3cccc4cccc(c34)C2=O)c1 [Example 2, 1,3-bis[N-[2-[[2-(3-nitro-1,8-naphthalimido)ethyl]amino]ethyl]carbamoyl]-5(1,8-naphthalimido)benzene dimethanesulfonate] | 0.0061
CN(C)CCNC(=O)c1cc(C(=O)NCCNCCN2C(=O)c3cccc4cc([N+](=O)[O-])cc(c34)C2=O)cc(N2C(=O)c3cccc4cc([N+](=O)[O-])cc(c34)C2=O)c1 [Example 42, 1-[N-(2-dimethylaminoethyl)carbamoyl]-3-(3-nitro-1,8-naphthalimido)-5-[N-[2-[[2-(3-nitro-1,8-naphthalimido)ethyl]amino]ethyl]carbamoyl]benzene hydrochloride] | 0.15
CN1CCN(C(=O)c2cc(C(=O)NCCNCCN3C(=O)c4cccc5cc([N+](=O)[O-])cc(c45)C3=O)cc(N3C(=O)c4cccc5cc([N+](=O)[O-])cc(c45)C3=O)c2)CC1 [Example 49, 1-(4-methylpiperazino)carbonyl-3-(3-nitro-1,8-naphthalimido)-5-[N-[2-[[2-(3-nitro-1,8-naphthalimido)ethyl]amino]ethyl]carbamoyl]benzene hydrochloride] | 0.035
O=C(NCCNCCN1C(=O)c2cccc3cc([N+](=O)[O-])cc(c23)C1=O)c1cc(C(=O)N2CCOCC2)cc(N2C(=O)c3cccc4cc([N+](=O)[O-])cc(c34)C2=O)c1 [Example 48, 1-morpholinocarbonyl-3-(3-nitro-1,8-naphthalimido)-5-[N-[2-[[2-(3-nitro-1,8-naphthalimido)ethyl]amino]ethyl]carbamoyl]benzene hydrochloride] | 0.052
O=C(NCCNCCN1C(=O)c2cccc3cccc(c23)C1=O)c1cc(C(=O)NCCNCCN2C(=O)c3cccc4cccc(c34)C2=O)cc(N2C(=O)c3cccc4cccc(c34)C2=O)c1 [Example 1, 1,3-bis[N-[2-[[2-(1,8-naphthalimido)ethyl]amino]ethyl]carbamoyl]-5-(1,8-naphthalimido) benzene dimethanesulfonate] | 0.059
CN(C)CCCNC(=O)c1cc(C(=O)NCCNCCN2C(=O)c3cccc4cc([N+](=O)[O-])cc(c34)C2=O)cc(N2C(=O)c3cccc4cc([N+](=O)[O-])cc(c34)C2=O)c1 [Example 41, 1-[N-(3-dimethylaminopropyl)carbamoyl]-3-(3-nitro-1,8-naphthalimido)-5-[N-[2-[[2-(3-nitro-1,8-naphthalimido)ethyl]amino]ethyl]carbamoyl]benzene hydrochloride] | 3.1
CN(C)CCCNC(=O)c1cc(NC(=O)CCCNC(=O)c2cc(C(=O)NCCNCCN3C(=O)c4cccc5cc([N+](=O)[O-])cc(c45)C3=O)cc(N3C(=O)c4cccc5cc([N+](=O)[O-])cc(c45)C3=O)c2)cn1C [Example 34, 1-[N-[3-[N-[2-[N-(3-dimethylaminopropyl)carbamoyl]-1-methylpyrrol-4-yl]carbamoyl]propyl]carbamoyl]-3-(3-nitro-1,8-naphthalimido)-5-[N-[2-[[2-(3-nitro-1,8-naphthalimido)ethyl]amino]ethyl]carbamoyl]benzene dihydrochloride] | 4.7
Cn1cc(NC(=O)c2cc(NC=O)cn2C)cc1C(=O)NCCNCCNC(=O)c1cc(C(=O)NCCNCCN2C(=O)c3cccc4cc([N+](=O)[O-])cc(c34)C2=O)cc(N2C(=O)c3cccc4cc([N+](=O)[O-])cc(c34)C2=O)c1 [Example 38, 1-[N-[2-[[2-[4-(4-formamido-1-methylpyrrole-2-carboxyamido)-1-methylpyrrole-2-carboxamido]ethyl]amino]ethyl]carbamoyl]-3-(3-nitro-1,8-naphthalimido)-5-[N-[2-[[2-(3-nitro-1,8-naphthalimido)ethyl]amino]ethyl]carbamoyl]benzene dihydrochloride] | 6.9
CNC(=O)c1cc(C(=O)NCCNCCN2C(=O)c3cccc4cc([N+](=O)[O-])cc(c34)C2=O)cc(N2C(=O)c3cccc4cc([N+](=O)[O-])cc(c34)C2=O)c1 [Example 43, 1-methylcarbamoyl-3-(3-nitro-1,8-naphthalimido)-5-[N-[2-[[2-(3-nitro-1,8-naphthalimido)ethyl]amino]ethyl]carbamoyl]benzene hydrochloride] | 0.025
O=C(NCCNCCN1C(=O)c2cccc3cccc(c23)C1=O)c1cc(C(=O)NCCNCCN2C(=O)c3cccc4cccc(c34)C2=O)cc(N2C(=O)c3cccc4cc([N+](=O)[O-])cc(c34)C2=O)c1 [Example 6, 1,3-bis[N-[2-[[2-(1,8-naphthalimido)ethyl]amino]ethyl]carbamoyl]-5-(3-nitro-1,8-naphthalimido)benzene and dihydrochloride thereof] | 0.064
CCN1CCN(C(=O)c2cc(C(=O)NCCNCCN3C(=O)c4cccc5cccc(c45)C3=O)cc(N3C(=O)c4cccc5cc([N+](=O)[O-])cc(c45)C3=O)c2)CC1 [Example 53, 1-(4-ethylpiperazino)carbonyl-3-[N-[2-[[2-(1,8-naphthalimido)ethyl]amino]ethyl]carbamoyl]-5-(3-nitro-1,8-naphthalimido)benzene hydrochloride] | 0.013
O=C(NCCNCCN1C(=O)c2cccc3cccc(c23)C1=O)c1cc(C(=O)NCCN2CCCCC2)cc(N2C(=O)c3cccc4cc([N+](=O)[O-])cc(c34)C2=O)c1 [Example 47, 1-[N-[2-[[2-(1,8-naphthalimido)ethyl]amino]ethyl]carbamoyl]-3-(3-nitro-1,8-naphthalimido)-5-[N-(2-piperidinoethyl)carbamoyl]benzene hydrochloride] | 0.0035
